US20250129430A1, “HIGH ATP-AFFINITY PROTEIN AS THERAPEUTIC TARGET FOR INTRACTABLE CANCER MOLECULAR SUBTYPES AND INHIBITOR THEREOF” (VeraVerse Co., Ltd., priority 2021, published 2025)

What was measured:
Experiment in all cases: Cell viability drug screen, 12-point dose-response AUC
Type in all cases: cell-based, human
AGS = conditions: 72 hours; for Average Area Under the Viability Curve (AUC), AUC norm value: AGS cells (non-SEM subtype)
Outline: (§1)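 Viability: luminescence (Glo kit, 15 min RT), normalized to 0.5% DMSO vehicle. Dosing: half-log, 12 concentrations, 72 h. Cells: 5×10^3/well, treated 24 h after plating. Value: trapezoidal AUC, mean of repeats.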

Hs746T = conditions: 72 hours; for Average Area Under the Viability Curve (AUC), AUC norm value: Hs746T cells (SEM subtype)
Outline: (§2)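 AUC values represent the area under DMSO-normalized 12-point curves, computed by trapezoid rule and averaged over repeated experiments. Each EMT-type gastric line was exposed to half-log serial concentrations for 72 h at 37 °C, and viability was measured with a Glo luminescence kit.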

KATO3 = KATO3 cells, 72 hours
Outline: as §2

MKN1 = MKN1 cells, 72 hours
Outline: as §2

MKN28 = MKN28 cells, 72 hours
Outline: as §2

MKN45 = conditions: 72 hours; for Average Area Under the Viability Curve (AUC), AUC norm value: MKN45 cells (non-SEM subtype)
Outline: as §1

MKN74 = MKN74 cells, 72 hours
Outline: as §1

NCC19 = NCC19 cells, 72 hours
Outline: as §2

NCC20 = NCC20 cells, 72 hours
Outline: as §2

NCC24 = NCC24 cells, 72 hours
Outline: as §2

NCC59 = NCC59 cells, 72 hours
Outline: as §2

NCI_N87 = NCI_N87 cells, 72 hours
Outline: as §2

OCUM1 = OCUM1 cells, 72 hours
Outline: as §2

SK4 = conditions: 72 hours; for Average Area Under the Viability Curve (AUC), AUC norm value: SK4 cells (SEM subtype)
Outline: as §2

SNU16 = SNU16 cells, 72 hours
Outline: as §2

SNU1750 = conditions: 72 hours; for Average Area Under the Viability Curve (AUC), AUC norm value: SNU1750 cells (SEM subtype)
Outline: as §2

SNU1967 = SNU1967 cells, 72 hours
Outline: as §2

SNU1 = SNU1 cells, 72 hours
Outline: as §2

SNU216 = conditions: 72 hours; for Average Area Under the Viability Curve (AUC), AUC norm value: SNU216 cells (non-SEM subtype)
Outline: as §1

SNU484 = conditions: 72 hours; for Average Area Under the Viability Curve (AUC), AUC norm value: SNU484 cells (SEM subtype)
Outline: as §2

SNU601 = SNU601 cells, 72 hours
Outline: as §2

SNU620 = SNU620 cells, 72 hours
Outline: as §2

SNU638 = SNU638 cells, 72 hours
Outline: as §2

SNU668 = conditions: 72 hours; for Average Area Under the Viability Curve (AUC), AUC norm value: SNU668 cells (SEM subtype)
Outline: as §2

SNU719 = SNU719 cells, 72 hours
Outline: as §1

YCC11 = conditions: 72 hours; for Average Area Under the Viability Curve (AUC), AUC norm value: YCC11 cells (SEM subtype)
Outline: as §2

YCC2 = YCC2 cells, 72 hours
Outline: as §2

YCC3 = YCC3 cells, 72 hours
Outline: as §2

FU97 = tested on: FU97; set-up: Average Area Under the Viability Curve (AUC), AUC norm value: scale not given here; conditions: FU97 cells, 72 hours
Outline: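 Trapezoidal AUC of a 12-point, DMSO-normalized dose-response curve. Luminescent viability was measured after 72 h of exposure at 37° C to half-log serial dilutions (0.5% DMSO control), dosed 24 h after plating FU97 cells at 5×10^3 per well.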

CC(C)n1nc(-c2ccc3oc(N)nc3c2)c2c(N)ncnc21 [INK 128 (MLN0128), INK 128]
Average Area Under the Viability Curve (AUC), AUC norm value (AGS): −1.244
Average Area Under the Viability Curve (AUC), AUC norm value (Hs746T): −1.821
Average Area Under the Viability Curve (AUC), AUC norm value (KATO3): 1.633
Average Area Under the Viability Curve (AUC), AUC norm value (MKN1): −0.7444
Average Area Under the Viability Curve (AUC), AUC norm value (MKN28): 1.195
Average Area Under the Viability Curve (AUC), AUC norm value (MKN45): −0.5935
Average Area Under the Viability Curve (AUC), AUC norm value (MKN74): −0.4883
Average Area Under the Viability Curve (AUC), AUC norm value (NCC19): 0.3022
Average Area Under the Viability Curve (AUC), AUC norm value (NCC20): −2.568
Average Area Under the Viability Curve (AUC), AUC norm value (NCC24): 0.7502
Average Area Under the Viability Curve (AUC), AUC norm value (NCC59): 1.541
Average Area Under the Viability Curve (AUC), AUC norm value (NCI_N87): 0.7081
Average Area Under the Viability Curve (AUC), AUC norm value (OCUM1): 0.03105
Average Area Under the Viability Curve (AUC), AUC norm value (SK4): −2.931
Average Area Under the Viability Curve (AUC), AUC norm value (SNU16): −0.8733
Average Area Under the Viability Curve (AUC), AUC norm value (SNU1750): −1.079
Average Area Under the Viability Curve (AUC), AUC norm value (SNU1967): −0.4728
Average Area Under the Viability Curve (AUC), AUC norm value (SNU1): 1.281
Average Area Under the Viability Curve (AUC), AUC norm value (SNU216): −0.9082
Average Area Under the Viability Curve (AUC), AUC norm value (SNU484): −1.089
Average Area Under the Viability Curve (AUC), AUC norm value (SNU601): 1.346
Average Area Under the Viability Curve (AUC), AUC norm value (SNU620): 0.08832
Average Area Under the Viability Curve (AUC), AUC norm value (SNU638): 0.2387
Average Area Under the Viability Curve (AUC), AUC norm value (SNU668): 1.085
Average Area Under the Viability Curve (AUC), AUC norm value (SNU719): 3.8255
Average Area Under the Viability Curve (AUC), AUC norm value (YCC11): −2.648
Average Area Under the Viability Curve (AUC), AUC norm value (YCC2): 0
Average Area Under the Viability Curve (AUC), AUC norm value (YCC3): 0.8535
Average Area Under the Viability Curve (AUC), AUC norm value (FU97): −2.857

CC(C)C[C@H](NC(=O)CNC(=O)c1cc(Cl)ccc1Cl)B(O)O [MLN2238]
area under the viability curve (AUC), normalized (AGS; AGS cells, 12-point dose-response): −0.8012
area under the viability curve (AUC), normalized (Hs746T; Hs746T cells, 12-point dose-response): −1.189
area under the viability curve (AUC), normalized (KATO3; 12-point dose-response): 0.7115
area under the viability curve (AUC), normalized (MKN1; 12-point dose-response): 0.3958
area under the viability curve (AUC), normalized (MKN28; 12-point dose-response): 0.5257
area under the viability curve (AUC), normalized (MKN45; MKN45 cells, 12-point dose-response): 0.4006
area under the viability curve (AUC), normalized (MKN74; 12-point dose-response): −0.2214
area under the viability curve (AUC), normalized (NCC19; 12-point dose-response): −0.8166
area under the viability curve (AUC), normalized (NCC20; 12-point dose-response): −1.247
area under the viability curve (AUC), normalized (NCC24; 12-point dose-response): −1.21
area under the viability curve (AUC), normalized (NCC59; 12-point dose-response): 0.318
area under the viability curve (AUC), normalized (NCI_N87; 12-point dose-response): 1.708
area under the viability curve (AUC), normalized (OCUM1; 12-point dose-response): 2.118
area under the viability curve (AUC), normalized (SK4; SK4 cells, 12-point dose-response): 0.5584
area under the viability curve (AUC), normalized (SNU16; 12-point dose-response): 0.7701
area under the viability curve (AUC), normalized (SNU1750; SNU1750 cells, 12-point dose-response): −1.896
area under the viability curve (AUC), normalized (SNU1967; 12-point dose-response): −1.676
area under the viability curve (AUC), normalized (SNU1; 12-point dose-response): −0.5037
area under the viability curve (AUC), normalized (SNU216; SNU216 cells, 12-point dose-response): 0.2331
area under the viability curve (AUC), normalized (SNU484; SNU484 cells, 12-point dose-response): −0.4125
area under the viability curve (AUC), normalized (SNU601; 12-point dose-response): −0.2758
area under the viability curve (AUC), normalized (SNU620; 12-point dose-response): −0.9643
area under the viability curve (AUC), normalized (SNU638; 12-point dose-response): −0.5736
area under the viability curve (AUC), normalized (SNU668; SNU668 cells, 12-point dose-response): 1.1951
area under the viability curve (AUC), normalized (SNU719; 12-point dose-response): 0.4168
area under the viability curve (AUC), normalized (YCC11; YCC11 cells, 12-point dose-response): −1.695
area under the viability curve (AUC), normalized (YCC2; 12-point dose-response): 0.04339
area under the viability curve (AUC), normalized (YCC3; 12-point dose-response): 2.808
area under the viability curve (AUC), normalized (FU97; 12-point dose-response): 0

CO[C@@H](C(=O)N1Cc2n[nH]c(NC(=O)c3ccc(N4CCN(C)CC4)cc3)c2C1)c1ccccc1 [Danusertib (PHA-739358), Danusertib]
Average Area Under the Viability Curve (AUC), AUC norm value (AGS): −1.034
Average Area Under the Viability Curve (AUC), AUC norm value (Hs746T): 1.565
Average Area Under the Viability Curve (AUC), AUC norm value (KATO3): −0.3046
Average Area Under the Viability Curve (AUC), AUC norm value (MKN1): −0.8271
Average Area Under the Viability Curve (AUC), AUC norm value (MKN28): 1.245
Average Area Under the Viability Curve (AUC), AUC norm value (MKN45): 2.103
Average Area Under the Viability Curve (AUC), AUC norm value (MKN74): 0.1321
Average Area Under the Viability Curve (AUC), AUC norm value (NCC19): 1.885
Average Area Under the Viability Curve (AUC), AUC norm value (NCC20): −4.082
Average Area Under the Viability Curve (AUC), AUC norm value (NCC24): 0.9879
Average Area Under the Viability Curve (AUC), AUC norm value (NCC59): 1.632
Average Area Under the Viability Curve (AUC), AUC norm value (NCI_N87): 2.122
Average Area Under the Viability Curve (AUC), AUC norm value (OCUM1): 0.8742
Average Area Under the Viability Curve (AUC), AUC norm value (SK4): −0.6677
Average Area Under the Viability Curve (AUC), AUC norm value (SNU16): −3.76
Average Area Under the Viability Curve (AUC), AUC norm value (SNU1750): −2.3091
Average Area Under the Viability Curve (AUC), AUC norm value (SNU1967): 0.03541
Average Area Under the Viability Curve (AUC), AUC norm value (SNU1): −2.274
Average Area Under the Viability Curve (AUC), AUC norm value (SNU216): 0
Average Area Under the Viability Curve (AUC), AUC norm value (SNU484): −1.537
Average Area Under the Viability Curve (AUC), AUC norm value (SNU601): 2.877
Average Area Under the Viability Curve (AUC), AUC norm value (SNU620): −2.616
Average Area Under the Viability Curve (AUC), AUC norm value (SNU638): −0.2145
Average Area Under the Viability Curve (AUC), AUC norm value (SNU668): 1.049
Average Area Under the Viability Curve (AUC), AUC norm value (SNU719): 3.935
Average Area Under the Viability Curve (AUC), AUC norm value (YCC11): −1.357
Average Area Under the Viability Curve (AUC), AUC norm value (YCC2): −0.9901
Average Area Under the Viability Curve (AUC), AUC norm value (YCC3): 0.7949
Average Area Under the Viability Curve (AUC), AUC norm value (FU97): −2.488
